Experiment: water-octanol distribution coefficient (log P value)
Format: physicochemical
Conditions: octanol/water; value defined by OECD Test Guideline 107
Description: The higher the log P value, the higher the hydrophobicity, and the lower the log P value, the higher the hydrophilicity.
`CC(C)CCOCC(O)CO` (stereo not drawn) [3-isopentyloxy-1,2 propanediol] gave a logP of 0.64. `CC(C)CCC(C)(O)C#CC(C)(O)CCC(C)C` (stereo not drawn) [Surfynol DF 110 D, 2,5,8,11-tetramethyl-6-dodecyne-5,8-diol] gave a logP of 4.18. With `C=C(C)C(=O)OCC(O)CO` (stereo not drawn) [glycerin 1-methacrylate] the logP was -0.12.

Same assay, conditions: value defined by OECD Test Guideline 107
For `CCCCCC(=O)OCC(O)CO` (stereo not drawn) [α-monocaproin], the “water-octanol distribution coefficient (log P)” value was 0.85. In the case of `CCCCCCCC(O)CCCC(=O)OCC(O)CO` (stereo not drawn) [5-hydroxydodecanoate 2,3-dihydroxypropyl], the “water-octanol distribution coefficient (log P)” value is reported as 2.15. With `CCCC(=O)OCC(O)COC(=O)CCC` [1,3-dibutyrin] the “water-octanol distribution coefficient (log P)” value was 1.59. For `CCCCC(O)CO` (stereo not drawn) [1,2-hexanediol], the “water-octanol distribution coefficient (log P)” value was 0.7. With `CCCCC(CC)C(=O)OCC(O)CO` (stereo not drawn) [2-ethylhexanoate 2,3-dihydroxypropyl] the “water-octanol distribution coefficient (log P)” value was 1.73. In the case of `CCCC(=O)OCC(O)CO` (stereo not drawn) [Example 1-butyrine, 1-butyrine], the “water-octanol distribution coefficient (log P)” value is reported as −0.21.

Reference: patent US10538681B2, “Aqueous ink for ink jet recording” (Seiko Epson Corporation, priority 2017, dated 2020)
